Results from PMC9415638, “Discovery of novel thiazolyl-pyrazolines as dual EGFR and VEGFR-2 inhibitors endowed with in vitro antitumor activity towards non-small lung cancer” (Journal of Enzyme Inhibition and Medicinal Chemistry, 2022).

Tests used:
[1] = tested on: VEGFR-2; parameters: method as in PMID 30641320; settings: Figure 2; cited from earlier work
[2] = biological target: T1, recombinant human VEGFR-2/KDR (Homo sapiens, UniProt P35968); assay: VEGFR-2 kinase assay (VEGFR-2/KDR ELISA kit); assay type: biochemical; settings: read-out: IC50 (nM) ± SEM VEGFR-2
T1 construct: purchased
Procedure: (§1) The EGFR kinase assay was carried out in 96-well plates coated with PGT (poly l-glutamic acid l-tyrosine, 4:1, Sigma Aldrich, St. Louis, MO) as previously described. IC50 values were calculated using GraphPad Prism 5. Each experiment was carried out at least three times. The VEGFR-2 kinase assay was carried out in 96-well streptavidin coated plate using recombinant human VEGFR-2/KDR ELISA kit according to manufacturer’s instructions.

[3] = tested on: KG-1a leukaemia cells; assay: Anti-proliferative MTT assay; assay type: cell-based; settings: Homo sapiens, 24 h, read-out: % Growth inhibition ± SEM KG-1a
Procedure: (§2) To evaluate the anti-proliferative activity of the synthesised thiazolyl-pyrazoline derivatives (7a–7d, 10a–10d, and 13a–13f), a preliminary in vitro one dose (10 µM) anticancer assay was performed. Nine cell lines derived from five tumour subpanels were examined; leukaemia (K562 and KG-1a), breast (MCF-7, BT-549 and HCC70), lung (A549 and H441), colon (HCT116) and liver (HepG2) cancer cell lines. The compounds were added at a single concentration (10 µM) and the cultures were incubated for 24 h, then the per cent growth inhibition (%GI) was calculated.
(§3) Human leukaemia (K562 and KG-1a), breast (MCF-7, BT-549 and HCC70), lung (A549, H441, NCI-H1650 and NCI-H1975), colon (HCT116), liver (HepG2) cancer cell lines and WI-38 human lung fibroblast cell line were obtained from the American Type Culture Collection (ATCC; Manassas, VA) and were cultured in their suitable media containing 10% foetal bovine serum (FBS; Sigma-Aldrich) in a humidified atmosphere with 5% CO2 at 37 °C. Gefitinib and vandetanib were purchased from Sigma-Aldrich. All chemicals used in this study were analytical or cell-culture grade.
(§4) Cytotoxicity was measured using the MTT assay. Human leukaemia (K562 and KG-1a), breast (MCF-7, BT-549 and HCC70), lung (A549, H441, NCI-H1650 and NCI-H1975), colon (HCT116), liver (HepG2) cancer cell lines and WI-38 human lung fibroblast cell line were plated at a density of 1 × 10^4 cells per well in 96-well plates overnight and then treated with the compounds. After 24 h treatment, 20 μL of MTT solution (2 mg/mL in phosphate-buffered saline [PBS]) was added to each well and the cells were cultured for another 4 h at 37 °C. The medium was aspirated and 150 μL DMSO was added to solubilise MTT formazan crystals. The plates were then shaken, and the optical density was determined at 570 nm using an ELISA plate reader (Model 550, Bio-Rad, Hercules, CA). At least three independent experiments were performed. The IC50 values were calculated using GraphPad Prism 5 (Version 5.01, GraphPad Software, San Diego, CA).

[4] = tested on: MCF-7 breast cancer cells; assay: Anti-proliferative MTT assay; assay type: cell-based; settings: Homo sapiens, MCF7, 24 h, read-out: % Growth inhibition ± SEM MCF-7
Procedure: as §2, §3, §4

[5] = tested on: HepG2 liver cancer cells; assay: Anti-proliferative MTT assay; assay type: cell-based; settings: Homo sapiens, 24 h, read-out: % Growth inhibition ± SEM HepG2
Procedure: as §2, §3, §4

[6] = tested on: K562 leukaemia cells; assay: Anti-proliferative MTT assay; assay type: cell-based; settings: Homo sapiens, 24 h, read-out: % Growth inhibition ± SEM K562
Procedure: as §2, §3, §4

[7] = tested on: HCT116 colon cancer cells; assay: Anti-proliferative MTT assay; assay type: cell-based; settings: Homo sapiens, HCT-116, 24 h, read-out: % Growth inhibition ± SEM HCT116
Procedure: as §2, §3, §4

[8] = tested on: BT-549 breast cancer cells; assay: Anti-proliferative MTT assay; assay type: cell-based; settings: Homo sapiens, 24 h, read-out: % Growth inhibition ± SEM BT-549
Procedure: as §2, §3, §4

[9] = tested on: HCC70 breast cancer cells; assay: Anti-proliferative MTT assay; assay type: cell-based; settings: Homo sapiens, 24 h, read-out: % Growth inhibition ± SEM HCC70
Procedure: as §2, §3, §4

[10] = biological target: EGFR (Homo sapiens, UniProt P00533); assay: EGFR kinase assay (PGT-coated 96-well plates); assay type: biochemical; settings: read-out: IC50 (nM) ± SEM EGFR
Procedure: as §1

[11] = tested on: A549 lung cancer cells; assay: Anti-proliferative MTT assay; settings: Homo sapiens, A549, 24 h; for inhibition at 10 µM: read-out: % Growth inhibition ± SEM A549; for IC50: read-out: IC50 (µM) ± SEM A549
[12] = tested on: WI-38 human lung fibroblast cells; assay: MTT cytotoxicity assay on normal cells; assay type: cell-based; settings: Homo sapiens, WI-38; normal lung fibroblasts, MTT, 24 h, n = 3; read-out: IC50 (µM) ± SEM WI-38
Procedure: All chemicals used in this study were analytical or cell-culture grade.
Cytotoxicity was measured using the MTT assay. […] The medium was aspirated and 150 μL DMSO was added to solubilise MTT formazan crystals. The plates were then shaken, and the optical density was determined at 570 nm using an ELISA plate reader (Model 550, Bio-Rad, Hercules, CA). At least three independent experiments were performed.

[13] = tested on: H441 lung cancer cells; assay: Anti-proliferative MTT assay; settings: Homo sapiens, NCI-H441, 24 h; for inhibition at 10 µM: read-out: % Growth inhibition ± SEM H441; for IC50: read-out: IC50 (µM) ± SEM H441, MTT, 24 h, n = 3
[14] = tested on: A549 cells; assay: Cell cycle analysis by flow cytometry (7AAD); assay type: cell-based, human; settings: A549, 20 µM, 24 h
Procedure: Figure 6. […] (A) Representative cell cycle distribution data are shown by flow cytometric analysis upon incubation with 0 (control), 2.5 or 5 μM of 10b or 10d or with 0 (control), 5 or 20 μM of gefitinib for 24 h. (B) Quantification of cell cycle distribution upon 24 h incubation with 10b or 10d.
DNA content was measured using 7-aminoactinmycin D (7AAD) (Biotium, Inc., Hayward, CA) staining and is commonly used for cell cycle phase analysis as previously described. Apoptosis was evaluated using the annexin V/propidium iodide (PI) staining kit (BioLegend, San Diego, CA) according to the manufacturer’s instructions and as previously described.

T1 sequence (P35968 20-1356): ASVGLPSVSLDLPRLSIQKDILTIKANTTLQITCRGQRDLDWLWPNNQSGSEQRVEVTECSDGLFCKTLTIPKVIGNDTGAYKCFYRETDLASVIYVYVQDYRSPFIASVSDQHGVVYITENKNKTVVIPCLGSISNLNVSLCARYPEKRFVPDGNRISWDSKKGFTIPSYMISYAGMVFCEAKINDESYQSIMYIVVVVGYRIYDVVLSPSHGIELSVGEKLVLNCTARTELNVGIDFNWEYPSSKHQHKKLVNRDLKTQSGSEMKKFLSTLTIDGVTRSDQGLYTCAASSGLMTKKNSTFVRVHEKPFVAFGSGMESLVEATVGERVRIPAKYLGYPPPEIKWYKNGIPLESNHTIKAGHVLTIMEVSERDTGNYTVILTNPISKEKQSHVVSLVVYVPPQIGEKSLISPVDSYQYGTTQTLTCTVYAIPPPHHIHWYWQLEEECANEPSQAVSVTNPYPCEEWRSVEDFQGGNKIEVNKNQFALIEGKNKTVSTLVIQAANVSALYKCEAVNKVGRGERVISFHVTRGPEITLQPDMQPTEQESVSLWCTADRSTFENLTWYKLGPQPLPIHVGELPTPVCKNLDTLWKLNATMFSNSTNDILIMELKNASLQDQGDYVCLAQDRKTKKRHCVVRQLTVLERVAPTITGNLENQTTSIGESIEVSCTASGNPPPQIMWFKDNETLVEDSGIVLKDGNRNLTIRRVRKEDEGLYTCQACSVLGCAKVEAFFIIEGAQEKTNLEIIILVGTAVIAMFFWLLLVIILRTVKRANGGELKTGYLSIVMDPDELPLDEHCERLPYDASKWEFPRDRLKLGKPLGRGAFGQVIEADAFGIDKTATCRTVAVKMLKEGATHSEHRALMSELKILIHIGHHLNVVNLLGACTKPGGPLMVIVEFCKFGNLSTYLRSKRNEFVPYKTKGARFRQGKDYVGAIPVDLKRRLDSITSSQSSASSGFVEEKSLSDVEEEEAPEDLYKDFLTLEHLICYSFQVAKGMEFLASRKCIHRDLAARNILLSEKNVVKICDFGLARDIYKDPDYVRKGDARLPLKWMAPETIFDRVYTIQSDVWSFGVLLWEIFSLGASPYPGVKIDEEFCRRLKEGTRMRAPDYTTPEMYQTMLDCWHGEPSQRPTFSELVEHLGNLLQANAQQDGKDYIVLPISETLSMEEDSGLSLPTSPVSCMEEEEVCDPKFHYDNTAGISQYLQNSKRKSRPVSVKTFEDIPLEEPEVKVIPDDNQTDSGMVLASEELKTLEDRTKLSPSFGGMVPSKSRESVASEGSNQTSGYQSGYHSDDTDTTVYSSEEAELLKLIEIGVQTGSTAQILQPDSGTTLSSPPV
EGFR, sequence (P00533 25-1210): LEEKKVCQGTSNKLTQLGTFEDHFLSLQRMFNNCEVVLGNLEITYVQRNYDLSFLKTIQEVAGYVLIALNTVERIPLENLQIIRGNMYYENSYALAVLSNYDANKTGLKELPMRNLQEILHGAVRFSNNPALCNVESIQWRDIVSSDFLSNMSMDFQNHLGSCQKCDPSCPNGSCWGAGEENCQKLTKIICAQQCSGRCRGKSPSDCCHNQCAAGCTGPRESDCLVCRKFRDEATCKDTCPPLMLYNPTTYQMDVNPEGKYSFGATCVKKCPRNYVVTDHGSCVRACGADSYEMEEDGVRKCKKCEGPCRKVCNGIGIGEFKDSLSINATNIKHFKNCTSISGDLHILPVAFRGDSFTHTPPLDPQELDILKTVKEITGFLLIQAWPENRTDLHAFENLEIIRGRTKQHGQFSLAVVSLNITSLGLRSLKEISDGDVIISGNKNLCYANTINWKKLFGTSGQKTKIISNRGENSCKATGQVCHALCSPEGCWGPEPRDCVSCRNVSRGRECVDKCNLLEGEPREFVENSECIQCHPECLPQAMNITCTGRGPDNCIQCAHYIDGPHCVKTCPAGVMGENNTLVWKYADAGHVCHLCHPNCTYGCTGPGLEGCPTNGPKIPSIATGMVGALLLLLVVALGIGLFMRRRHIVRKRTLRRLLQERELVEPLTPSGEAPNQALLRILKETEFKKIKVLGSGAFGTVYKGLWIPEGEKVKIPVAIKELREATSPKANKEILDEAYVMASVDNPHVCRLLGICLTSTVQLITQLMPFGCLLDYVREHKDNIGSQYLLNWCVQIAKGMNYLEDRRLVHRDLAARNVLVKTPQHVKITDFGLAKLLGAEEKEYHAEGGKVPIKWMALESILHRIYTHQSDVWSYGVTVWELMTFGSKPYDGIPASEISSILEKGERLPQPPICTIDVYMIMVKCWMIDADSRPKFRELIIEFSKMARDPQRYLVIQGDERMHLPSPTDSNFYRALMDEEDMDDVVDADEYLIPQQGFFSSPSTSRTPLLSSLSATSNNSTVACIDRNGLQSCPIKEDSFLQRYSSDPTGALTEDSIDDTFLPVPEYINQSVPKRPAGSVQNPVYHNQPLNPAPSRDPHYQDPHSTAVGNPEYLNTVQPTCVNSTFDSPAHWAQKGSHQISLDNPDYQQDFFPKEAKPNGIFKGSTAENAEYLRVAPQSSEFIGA

SMILES: CN(C)c1ccc(C2CC(c3c(O)c4ccccc4oc3=O)=NN2c2nc(-c3ccccc3)c(/N=N/c3ccc(Cl)cc3)s2)cc1 (centres unmarked) [Compound IV]
- IC50 [1]: 0.034 µM

SMILES: COc1ccc(C2CC(c3ccc(Cl)cc3Cl)=NN2c2nc(C)c(C(=O)Nc3ccccc3)s2)cc1 (centres unmarked) [Compound 10c, 2-(3-(2,4-Dichlorophenyl)-5-(4-methoxyphenyl)-4,5-dihydro-1H-pyrazol-1-yl)-4-methyl-N-phenylthiazole-5-carboxamide]
- IC50 [2]: 102 ± 4.3 nM
- inhibition at 10 µM [3]: 9.1 ± 1%
- inhibition at 10 µM [4]: 2.5 ± 0.8%
- inhibition at 10 µM [5]: 11.9 ± 1.1%
- inhibition at 10 µM [6]: 11.2 ± 1%
- inhibition at 10 µM [7]: 7.9 ± 1.1%
- inhibition at 10 µM [8]: 22.3 ± 0.8%
- inhibition at 10 µM [9]: 18.3 ± 1.6%
- IC50 [10]: 130.7 ± 1.1 nM
- inhibition at 10 µM [11]: 28.9 ± 2%
- IC50 [11]: 23.5 ± 1.3 µM
- IC50 [12]: > 100 µM
- melting point: 195 to 197 °C
- inhibition at 10 µM [13]: 8.7 ± 0.1%
- IC50 [13]: 45.2 ± 2.3 µM

SMILES: COc1ccc(C2CC(c3ccc(Cl)cc3Cl)=NN2c2nc(C)c(N=Nc3ccc(Cl)cc3)s2)cc1 (centres unmarked) [Compound 13c, 5-((4-Chlorophenyl)diazenyl)-2-(3-(2,4-dichlorophenyl)-5-(4-methoxyphenyl)-4,5-dihydro-1H-pyrazol-1-yl)-4-methylthiazole]
- IC50 [2]: 173 ± 2.6 nM
- inhibition at 10 µM [3]: 12.4 ± 1.6%
- inhibition at 10 µM [4]: 10.4 ± 2.9%
- inhibition at 10 µM [5]: 14.2 ± 1%
- inhibition at 10 µM [6]: 5.2 ± 0.9%
- inhibition at 10 µM [7]: 8.7 ± 0.6%
- inhibition at 10 µM [8]: 8.7 ± 1.9%
- inhibition at 10 µM [9]: 1.1 ± 0.1%
- IC50 [10]: 134 ± 1.5 nM
- inhibition at 10 µM [11]: 14.8 ± 1%
- IC50 [11]: 46.3 ± 2.5 µM
- IC50 [12]: 91.4 ± 8.9 µM
- melting point: 170 to 171 °C
- inhibition at 10 µM [13]: 19.9 ± 1.7%
- IC50 [13]: 33.5 ± 3.9 µM

SMILES: COc1ccc(C2CC(c3ccc(Cl)cc3Cl)=NN2c2nc(C)c(C(C)=O)s2)cc1 (centres unmarked) [Compound 10a, 1-(2-(3-(2,4-Dichlorophenyl)-5-(4-methoxyphenyl)-4,5-dihydro-1H-pyrazol-1-yl)-4-methylthiazol-5-yl)ethan-1-one]
- IC50 [2]: 450 ± 8.3 nM
- inhibition at 10 µM [3]: 22.2 ± 1.6%
- inhibition at 10 µM [4]: 13.6 ± 2.9%
- inhibition at 10 µM [5]: 28 ± 4.3%
- inhibition at 10 µM [6]: 12.2 ± 1.9%
- inhibition at 10 µM [7]: 19 ± 2.6%
- inhibition at 10 µM [8]: 9.4 ± 1%
- inhibition at 10 µM [9]: 24.3 ± 2.5%
- IC50 [10]: 274 ± 2.3 nM
- inhibition at 10 µM [11]: 32.3 ± 2.2%
- IC50 [11]: 49.1 ± 3.2 µM
- IC50 [12]: > 100 µM
- melting point: 205 to 207 °C
- inhibition at 10 µM [13]: 6.3 ± 0.7%
- IC50 [13]: > 100 µM

SMILES: COc1cc2ncnc(Nc3ccc(F)c(Cl)c3)c2cc1OCCCN1CCOCC1 [Gefitinib, reference compound]
- cell cycle arrest phase [14]: significantly arrested the cell cycle at G1 phase

SMILES: COc1ccc(C2CC(c3ccc(Cl)cc3Cl)=NN2c2nc(C)c(N=Nc3ccc(C)cc3)s2)cc1 (centres unmarked) [Compound 13b, 2-(3-(2,4-Dichlorophenyl)-5-(4-methoxyphenyl)-4,5-dihydro-1H-pyrazol-1-yl)-4-methyl-5-(p-tolyldiazenyl)thiazole]
- IC50 [2]: 214 ± 4 nM
- inhibition at 10 µM [3]: 7.1 ± 0.2%
- inhibition at 10 µM [4]: 3.4 ± 0.5%
- inhibition at 10 µM [5]: 0.08%
- inhibition at 10 µM [6]: 11 ± 0.6%
- inhibition at 10 µM [7]: 0.8 ± 0.2%
- inhibition at 10 µM [8]: 5.1 ± 0.3%
- inhibition at 10 µM [9]: 8.3 ± 0.9%
- IC50 [10]: 179 nM
- inhibition at 10 µM [11]: 16.2 ± 1.3%
- IC50 [11]: 59.1 ± 3.2 µM
- IC50 [12]: > 100 µM
- melting point: 170 to 171 °C
- inhibition at 10 µM [13]: 23.3 ± 2.4%
- IC50 [13]: 24.2 ± 1.8 µM
